Literature values in patent US20070202055A1, “Pharmaceutical Formulations” (priority 2006, published 2007).

Experiments:
[1] = system: symptoms associated with chronic nasal congestion
[2] = system: rhinoviruses
[3] = system: secretions of natural tear components; settings: preclinical testing

## Oc1cccc(Nc2ncc(F)c(Nc3cccc(O)c3)n2)c1 [Example R112]
[1]
  absolute difference over placebo: 9%
  relative improvement over placebo: greater than 20%
[1]; baseline prior to drug initiation
  improvement from baseline measurements: up to 38%

## Cc1cc(CCCOc2c(C)cc(-c3noc(C(F)(F)F)n3)cc2C)on1 [Pleconaril, 1,2,4-oxadiazole3-[3,5-Dimethyl-4-[3-(3-methyl-5-isoxazolyl)propoxy]phenyl]-5-(trifluoremethyl)]
Aqueous solvents
  solubility in aqueous solvents: insoluble
For example corn oil and ethanol
  solubility in liquids of low polarity: soluble only in liquids of low polarity
[2]
  activity against rhinoviruses: active

## O=c1ccn([C@@H]2O[C@H](COP(=O)(O)OP(=O)(O)OP(=O)(O)OP(=O)(O)OC[C@H]3O[C@@H](n4ccc(=O)[nH]c4=O)[C@H](O)[C@@H]3O)[C@@H](O)[C@H]2O)c(=O)[nH]1 [diquafosol]
[3]
  effect on secretions of natural tear components: increased the secretions of natural tear components
